What was measured:
[1] = system: P-gp-overexpressing cell lines; conditions: cited from earlier work
[2] = mice; cited from earlier work
[3] = system: paclitaxel-resistant xenografts; conditions: cited from earlier work
[4] = system: advanced or metastatic solid tumors; test: Anti-tumor activity; type: in vivo, human
[5] = Urinary excretion of KOS-1584 and metabolites; type: in vivo, human; conditions: MTD level, 0-24 h urine
plasma proteins = conditions: cited from earlier work
tubulin in PBMCs = test: Microtubule bundle formation; type: in vivo, human; conditions: for mean percentage of MBF: RP2D
[6] = system: patients with advanced solid tumors; test: Phase I dose escalation: safety, DLT, MTD; type: in vivo, human; conditions: for Dyspnea, grade 3: listed as remotely related to study drug
[7] = 0.8 mg/m^2 (n = 1), treatment-related
[8] = 1.5 mg/m^2 (n = 4), treatment-related
[9] = 2.5 mg/m^2 (n = 4), treatment-related
[10] = 3.7 mg/m^2 (n = 3), treatment-related
[11] = 5 mg/m^2 (n = 4), treatment-related
[12] = 6.5 mg/m^2 (n = 6), treatment-related
[13] = 8.5 mg/m^2 (n = 3), treatment-related
[14] = 11.3 mg/m^2 (n = 4), treatment-related
[15] = 15 mg/m^2 (n = 4), treatment-related

## C/C1=C/C[C@@H](/C(C)=C/c2csc(C)n2)OC(=O)C[C@H](O)C(C)(C)C(=O)[C@H](C)[C@@H](O)[C@@H](C)/C=C/C1 [KOS-1584, (E)-9,10-didehydroepothilone D]
[1]
  potency relative to paclitaxel: more potent than paclitaxel
[2]
  penetration of the BBB: did penetrate the BBB
[3]
  anti-tumor activity: anti-tumor activity has been demonstrated
[4]; 66 patients
  patients with durable SD of ≥3 months: 13 patients
[4]; 66 patients, 0.8-48 mg/m^2
  patients with objective partial response (PR): Two
[4]; all patients
  disease control rate (CR + PR + SD): 39%
[5]
  Urinary excretion of unchanged KOS-1584: < 10 % of drug-related materials
Plasma proteins
  bound to plasma proteins: 97%
Tubulin in PBMCs; 1 h after infusion
  mean percentage of MBF: 50%
Tubulin in PBMCs; 24 h after infusion
  mean percentage of MBF: 26%
Tubulin in PBMCs; sigmoidal maximum effect model
  E0 of MBF: 3.69%
  EC50 of plasma concentration for MBF: 0.0241 µg/mL
  Emax of MBF: 52.7%
[6]; 0.8 mg/m^2 (n = 1)
  Dyspnea, grade 3: 1 no. of patients
[6]; [7]
  Anemia, grade 1/2: 1 no. of patients
  Anorexia, grade 1/2: 1 no. of patients
  Asthenia/fatigue, grade 3: 1 no. of patients
  Constipation, grade 1/2: 1 no. of patients
  Diarrhea, grade 1/2: 1 no. of patients
  Nausea/vomiting, grade 1/2: 1 no. of patients
[6]; [8]
  Anorexia, grade 1/2: 2 no. of patients
  Arthralgia/myalgia, grade 1/2: 1 no. of patients
  Back pain, grade 1/2: 2 no. of patients
  Diarrhea, grade 1/2: 2 no. of patients
  Dyspnea, grade 1/2: 1 no. of patients
  Lymphopenia, grade 1/2: 1 no. of patients
  Nausea/vomiting, grade 1/2: 1 no. of patients
  Peripheral neuropathy, grade 1/2: 2 no. of patients
  Pleural effusion, grade 1/2: 1 no. of patients
[6]; [9]
  Abdominal pain, grade 1/2: 2 no. of patients
  Anorexia, grade 1/2: 2 no. of patients
  Asthenia/fatigue, grade 1/2: 4 no. of patients
  Constipation, grade 1/2: 2 no. of patients
  Diarrhea, grade 1/2: 2 no. of patients
  Dry skin/rash, grade 1/2: 1 no. of patients
  Nausea/vomiting, grade 1/2: 2 no. of patients
  Peripheral neuropathy, grade 1/2: 1 no. of patients
[6]; [10]
  Abdominal pain, grade 1/2: 1 no. of patients
  Anemia, grade 1/2: 1 no. of patients
  Arthralgia/myalgia, grade 1/2: 1 no. of patients
  Asthenia/fatigue, grade 1/2: 1 no. of patients
  Diarrhea, grade 1/2: 2 no. of patients
  Dizziness, grade 1/2: 1 no. of patients
  Nausea/vomiting, grade 1/2: 1 no. of patients
  Peripheral neuropathy, grade 1/2: 1 no. of patients
[6]; [11]
  Anorexia, grade 1/2: 1 no. of patients
  Dizziness, grade 1/2: 1 no. of patients
  Edema, grade 1/2: 1 no. of patients
  Nausea/vomiting, grade 1/2: 1 no. of patients
[6]; 6.5 mg/m^2 (n = 6)
  Dyspnea, grade 3: 1 no. of patients
[6]; [12]
  Anemia, grade 1/2: 1 no. of patients
  Asthenia/fatigue, grade 1/2: 2 no. of patients
  Diarrhea, grade 1/2: 1 no. of patients
  Dizziness, grade 1/2: 2 no. of patients
  Nausea/vomiting, grade 1/2: 1 no. of patients
  Pleural effusion, grade 1/2: 1 no. of patients
[6]; [13]
  Asthenia/fatigue, grade 1/2: 1 no. of patients
  Edema, grade 1/2: 1 no. of patients
  Peripheral neuropathy, grade 1/2: 1 no. of patients
[6]; [14]
  Anorexia, grade 1/2: 1 no. of patients
  Asthenia/fatigue, grade 1/2: 1 no. of patients
  Asthenia/fatigue, grade 3: 1 no. of patients
  Constipation, grade 1/2: 1 no. of patients
  Headache, grade 1/2: 1 no. of patients
  Nausea/vomiting, grade 1/2: 1 no. of patients
[6]; [15]
  Abdominal pain, grade 3: 1 no. of patients
  Anemia, grade 1/2: 1 no. of patients
  Asthenia/fatigue, grade 3: 1 no. of patients
  Diarrhea, grade 1/2: 1 no. of patients
  Edema, grade 1/2: 1 no. of patients
  Nausea/vomiting, grade 1/2: 2 no. of patients
  Peripheral neuropathy, grade 1/2: 1 no. of patients
[6]; 20 mg/m^2 (n = 5), treatment-related
  Alopecia, grade 1/2: 1 no. of patients

Source: publication PMC3865603 (Cancer chemotherapy and pharmacology, 2011)
